Reference: US12427210B2, “Compounds comprising a fibroblast activation protein ligand and use thereof” (priority 2019, dated 2025)
Numbered stars: 1 amine (or outer) side, 2 acyl side, 3 side chain; on linkers, the order of the positions; unused ones are H or OH. Bridge positions count the residues as written; N and C are the ends. Peptide text beside a SMILES is read from it. * marks the point of attachment. X1 = O=C(O)CN1CCN(CC(=O)O)CCN(CC(=O)N2CCN(Cc3cc(C[*:1])cc(C[*:2])c3)CC2)CCN(CC(=O)O)CC1; Hexanoyl = CCCCCC(=O)*

Assays:
BZD (central) = settings: 10 μM
NMDA = settings: 10 μM
KV channel = settings: 10 μM
delta (DOP) (h) = delta (DOP) (h) (Homo sapiens, UniProt P41143); test: biochemical; settings: read-out: % Inhibition of Specific Binding
5-HT2B (h) = 5-HT2B (h) (Homo sapiens, UniProt P41595); test: biochemical; settings: read-out: % Inhibition of Specific Binding
Beta secretase = Beta secretase (Homo sapiens, UniProt P56817); test: biochemical; settings: read-out: Percentage inhibition (%)
Caspase-6 = biological target: T1, Caspase-6 (Homo sapiens, UniProt P55212); test: biochemical; settings: read-out: Percentage inhibition (%)
T1 sequence (P55212 24-179 limits assumed): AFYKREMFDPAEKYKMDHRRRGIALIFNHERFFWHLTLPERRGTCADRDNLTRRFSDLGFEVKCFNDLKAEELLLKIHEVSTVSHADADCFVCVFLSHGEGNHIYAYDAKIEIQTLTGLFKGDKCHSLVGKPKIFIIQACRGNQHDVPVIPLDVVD
T1 sequence (P55212 194-293 limits assumed): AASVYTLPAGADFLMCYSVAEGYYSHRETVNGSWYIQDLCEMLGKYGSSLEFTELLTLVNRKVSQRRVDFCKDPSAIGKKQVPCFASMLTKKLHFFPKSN

A20 = biological target: T2, A20 (Homo sapiens, UniProt P21580); test: biochemical; settings: read-out: Percentage inhibition (%)
T2 sequence (P21580 1-790): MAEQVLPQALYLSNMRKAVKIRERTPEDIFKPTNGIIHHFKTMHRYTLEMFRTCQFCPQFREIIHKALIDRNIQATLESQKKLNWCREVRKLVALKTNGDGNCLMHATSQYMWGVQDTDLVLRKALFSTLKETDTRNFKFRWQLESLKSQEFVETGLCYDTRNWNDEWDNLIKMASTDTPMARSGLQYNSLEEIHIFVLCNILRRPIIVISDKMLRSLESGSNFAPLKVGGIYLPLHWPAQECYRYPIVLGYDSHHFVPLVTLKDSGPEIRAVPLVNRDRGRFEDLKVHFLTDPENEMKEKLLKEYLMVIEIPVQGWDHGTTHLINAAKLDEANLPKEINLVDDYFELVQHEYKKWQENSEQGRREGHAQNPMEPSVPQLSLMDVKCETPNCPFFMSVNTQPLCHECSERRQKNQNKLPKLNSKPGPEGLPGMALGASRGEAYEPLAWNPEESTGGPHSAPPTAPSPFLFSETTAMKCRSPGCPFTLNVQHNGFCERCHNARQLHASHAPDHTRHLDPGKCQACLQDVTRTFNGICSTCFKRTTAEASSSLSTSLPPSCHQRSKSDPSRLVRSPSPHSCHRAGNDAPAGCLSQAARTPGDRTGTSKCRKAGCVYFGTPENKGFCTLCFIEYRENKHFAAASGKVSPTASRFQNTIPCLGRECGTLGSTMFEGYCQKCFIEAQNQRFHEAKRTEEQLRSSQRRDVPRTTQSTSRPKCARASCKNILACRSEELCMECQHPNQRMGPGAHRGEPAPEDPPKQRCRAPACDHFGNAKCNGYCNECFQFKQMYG

[1] = biological target: T3, Ubiquitin carboxy-terminal hydrolase L3 (Homo sapiens, UniProt P15374); test: biochemical; settings: read-out: Percentage inhibition (%)
T3 sequence (P15374 1-230): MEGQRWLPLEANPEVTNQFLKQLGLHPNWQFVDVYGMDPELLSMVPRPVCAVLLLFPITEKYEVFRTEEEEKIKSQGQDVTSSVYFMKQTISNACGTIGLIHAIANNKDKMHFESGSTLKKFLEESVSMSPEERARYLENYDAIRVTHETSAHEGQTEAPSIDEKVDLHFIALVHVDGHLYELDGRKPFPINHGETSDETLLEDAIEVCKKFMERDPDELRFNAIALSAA

DPP9 = DPP9 (Homo sapiens, UniProt Q86TI2); test: biochemical; settings: read-out: Percentage inhibition (%)
FAP = FAP (Homo sapiens, UniProt Q12884); test: biochemical; settings: read-out: Percentage inhibition (%)
Matrix metalloprotease 2 = biological target: T4, Matrix metalloprotease 2 (Homo sapiens, UniProt P08253); test: biochemical; settings: read-out: Percentage inhibition (%)
T4 sequence (P08253 110-660): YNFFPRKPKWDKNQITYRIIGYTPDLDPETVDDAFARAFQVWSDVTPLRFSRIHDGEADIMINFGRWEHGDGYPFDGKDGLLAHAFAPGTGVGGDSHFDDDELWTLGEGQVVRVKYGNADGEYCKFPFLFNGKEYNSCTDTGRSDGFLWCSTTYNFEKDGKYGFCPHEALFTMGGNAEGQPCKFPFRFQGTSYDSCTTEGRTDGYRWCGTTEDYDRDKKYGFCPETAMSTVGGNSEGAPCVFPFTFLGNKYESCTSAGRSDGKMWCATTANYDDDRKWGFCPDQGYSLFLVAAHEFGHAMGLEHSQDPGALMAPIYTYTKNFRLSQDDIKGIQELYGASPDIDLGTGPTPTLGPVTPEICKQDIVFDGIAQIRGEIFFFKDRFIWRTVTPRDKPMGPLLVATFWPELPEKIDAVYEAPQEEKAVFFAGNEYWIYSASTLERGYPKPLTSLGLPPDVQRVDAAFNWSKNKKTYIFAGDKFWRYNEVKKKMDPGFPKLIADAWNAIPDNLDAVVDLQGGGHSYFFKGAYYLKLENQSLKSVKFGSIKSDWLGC

Renin = biological target: T5, Renin (Homo sapiens, UniProt P00797); test: biochemical; settings: read-out: Percentage inhibition (%)
T5 sequence (P00797 67-406): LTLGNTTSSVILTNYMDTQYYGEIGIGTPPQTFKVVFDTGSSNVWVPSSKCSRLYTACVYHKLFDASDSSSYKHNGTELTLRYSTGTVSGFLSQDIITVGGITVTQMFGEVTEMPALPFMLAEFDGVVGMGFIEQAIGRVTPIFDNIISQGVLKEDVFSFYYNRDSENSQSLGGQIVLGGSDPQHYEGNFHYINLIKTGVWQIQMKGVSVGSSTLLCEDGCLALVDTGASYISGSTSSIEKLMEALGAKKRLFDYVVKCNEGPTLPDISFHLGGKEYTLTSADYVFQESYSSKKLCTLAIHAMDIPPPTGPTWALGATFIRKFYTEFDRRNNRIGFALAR

FAP, sequence (Q12884 whole entry): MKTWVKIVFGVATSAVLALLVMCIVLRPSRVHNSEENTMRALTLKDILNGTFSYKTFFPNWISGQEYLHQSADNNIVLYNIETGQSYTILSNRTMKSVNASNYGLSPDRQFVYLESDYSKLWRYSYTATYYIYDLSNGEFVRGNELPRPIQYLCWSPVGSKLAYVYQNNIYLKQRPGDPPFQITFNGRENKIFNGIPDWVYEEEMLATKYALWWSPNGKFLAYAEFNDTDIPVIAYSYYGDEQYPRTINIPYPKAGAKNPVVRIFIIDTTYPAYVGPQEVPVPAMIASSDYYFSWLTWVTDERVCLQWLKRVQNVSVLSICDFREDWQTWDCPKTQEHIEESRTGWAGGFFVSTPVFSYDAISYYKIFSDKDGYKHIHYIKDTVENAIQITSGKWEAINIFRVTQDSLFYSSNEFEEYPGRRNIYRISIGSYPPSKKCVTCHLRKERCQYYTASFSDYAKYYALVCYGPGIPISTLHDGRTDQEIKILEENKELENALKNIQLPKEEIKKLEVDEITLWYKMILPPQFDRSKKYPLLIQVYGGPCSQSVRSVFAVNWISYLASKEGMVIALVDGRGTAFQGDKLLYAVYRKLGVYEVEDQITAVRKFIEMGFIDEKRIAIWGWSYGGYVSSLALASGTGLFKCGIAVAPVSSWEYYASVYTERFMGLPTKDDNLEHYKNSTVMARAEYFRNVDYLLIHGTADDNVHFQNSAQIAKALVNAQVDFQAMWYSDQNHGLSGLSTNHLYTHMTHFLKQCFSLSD
DPP9, sequence (Q86TI2 whole entry, species assumed): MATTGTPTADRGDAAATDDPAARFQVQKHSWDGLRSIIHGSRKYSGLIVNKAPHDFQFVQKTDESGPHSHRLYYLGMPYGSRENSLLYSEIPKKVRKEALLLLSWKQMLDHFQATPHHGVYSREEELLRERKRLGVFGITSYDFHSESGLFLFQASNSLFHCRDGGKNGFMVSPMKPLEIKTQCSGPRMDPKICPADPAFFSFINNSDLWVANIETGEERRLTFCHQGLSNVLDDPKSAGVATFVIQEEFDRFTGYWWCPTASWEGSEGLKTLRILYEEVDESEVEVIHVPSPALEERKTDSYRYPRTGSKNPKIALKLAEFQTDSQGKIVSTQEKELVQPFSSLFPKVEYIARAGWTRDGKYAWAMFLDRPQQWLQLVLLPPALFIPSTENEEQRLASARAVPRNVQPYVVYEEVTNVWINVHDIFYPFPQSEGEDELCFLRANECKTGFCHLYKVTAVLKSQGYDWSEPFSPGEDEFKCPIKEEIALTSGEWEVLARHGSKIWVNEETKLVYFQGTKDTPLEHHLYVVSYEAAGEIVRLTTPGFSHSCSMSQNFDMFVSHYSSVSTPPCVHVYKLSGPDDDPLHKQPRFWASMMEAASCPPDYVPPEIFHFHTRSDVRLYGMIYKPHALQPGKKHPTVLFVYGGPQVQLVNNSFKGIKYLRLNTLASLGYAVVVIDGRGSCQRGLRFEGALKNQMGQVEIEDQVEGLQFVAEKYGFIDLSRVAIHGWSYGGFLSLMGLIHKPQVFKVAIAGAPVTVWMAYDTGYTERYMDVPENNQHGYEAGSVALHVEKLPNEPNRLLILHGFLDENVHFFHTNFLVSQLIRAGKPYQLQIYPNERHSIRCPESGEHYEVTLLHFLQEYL
Beta secretase, sequence (P56817 46-501): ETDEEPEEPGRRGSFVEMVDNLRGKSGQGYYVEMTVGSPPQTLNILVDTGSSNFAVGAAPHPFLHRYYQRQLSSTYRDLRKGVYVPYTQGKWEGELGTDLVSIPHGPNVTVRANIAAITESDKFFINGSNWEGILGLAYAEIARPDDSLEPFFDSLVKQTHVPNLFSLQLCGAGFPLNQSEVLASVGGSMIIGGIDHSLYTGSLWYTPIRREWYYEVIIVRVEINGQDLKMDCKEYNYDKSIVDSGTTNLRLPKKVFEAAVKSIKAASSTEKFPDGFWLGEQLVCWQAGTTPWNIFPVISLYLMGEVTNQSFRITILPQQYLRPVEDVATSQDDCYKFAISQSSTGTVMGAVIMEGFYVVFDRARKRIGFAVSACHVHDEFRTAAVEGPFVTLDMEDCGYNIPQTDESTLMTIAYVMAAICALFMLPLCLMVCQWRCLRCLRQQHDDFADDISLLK
delta (DOP) (h), sequence (P41143 whole entry): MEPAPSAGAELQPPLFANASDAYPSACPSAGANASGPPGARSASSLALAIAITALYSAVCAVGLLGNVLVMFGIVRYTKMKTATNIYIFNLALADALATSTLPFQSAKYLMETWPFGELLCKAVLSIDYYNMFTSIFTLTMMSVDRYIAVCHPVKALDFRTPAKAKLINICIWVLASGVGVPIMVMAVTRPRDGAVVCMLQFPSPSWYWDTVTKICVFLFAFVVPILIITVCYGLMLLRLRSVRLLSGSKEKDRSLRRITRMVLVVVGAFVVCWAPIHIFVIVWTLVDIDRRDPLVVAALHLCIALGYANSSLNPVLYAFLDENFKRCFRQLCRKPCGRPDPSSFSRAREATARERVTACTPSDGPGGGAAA
5-HT2B (h), sequence (P41595 whole entry): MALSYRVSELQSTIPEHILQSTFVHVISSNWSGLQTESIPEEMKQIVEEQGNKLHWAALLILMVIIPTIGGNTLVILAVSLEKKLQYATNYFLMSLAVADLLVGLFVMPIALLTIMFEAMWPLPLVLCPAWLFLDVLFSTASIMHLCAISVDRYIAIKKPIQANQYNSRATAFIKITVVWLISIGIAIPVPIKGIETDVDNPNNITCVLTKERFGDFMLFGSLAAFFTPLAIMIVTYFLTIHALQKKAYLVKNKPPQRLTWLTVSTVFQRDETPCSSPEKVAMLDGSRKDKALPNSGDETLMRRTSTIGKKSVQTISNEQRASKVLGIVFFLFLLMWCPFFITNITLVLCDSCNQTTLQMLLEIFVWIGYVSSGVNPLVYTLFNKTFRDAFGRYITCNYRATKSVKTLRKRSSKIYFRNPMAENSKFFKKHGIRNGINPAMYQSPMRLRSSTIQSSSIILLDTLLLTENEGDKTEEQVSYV

| Compound | % Inhibition of Specific Binding (BZD (central)) | % Inhibition of Specific Binding (NMDA) | % Inhibition of Specific Binding (KV channel) | inhibition at 10 µM (delta (DOP) (h)) | inhibition at 10 µM (5-HT2B (h)) | inhibition at 1 µM (Beta secretase) | inhibition at 10 µM (Beta secretase) | inhibition at 1 µM (Caspase-6) | inhibition at 10 µM (Caspase-6) | inhibition at 1 µM (A20) | inhibition at 10 µM (A20) | inhibition at 1 µM [1] | inhibition at 10 µM [1] | inhibition at 1 µM (DPP9) | inhibition at 10 µM (DPP9) | inhibition at 1 µM (FAP) | inhibition at 10 µM (FAP) | inhibition at 1 µM (Matrix metalloprotease 2) | inhibition at 10 µM (Matrix metalloprotease 2) | inhibition at 1 µM (Renin) | also measured |
| --- | --- | --- | --- | --- | --- | --- | --- | --- | --- | --- | --- | --- | --- | --- | --- | --- | --- | --- | --- | --- | --- |
| CCCCCC(=O)N[C@H]1CSCc2cc(CSCCNC(=O)CN3CCN(CC(=O)O)CCN(CC(=O)O)CCN(CC(=O)O)CC3)cc(c2)CSC[C@@H](C(=O)O)NC(=O)[C@H](Cc2ccccc2)NC(=O)[C@H](CCC(N)=O)NC(=O)[C@H]([C@@H](C)O)NC(=O)[C@@H]2CCCN2C(=O)[C@@H]2CCCN2C1=O [Compound 3BP-3554, Hex-[Cys(tMeBn(DOTA-AET))-Pro-Pro-Thr-Gln-Phe-Cys]-OH] | 5% | 1% | 4% | 1% | 3% | 1% | 7% | 6% | -3% | 1% | 0% | 0% | 0% | -1% | -5% | 97% | 99% | -1% | -2% | 0% | inhibition at 10 µM (Renin): -1% |
| CCCCCC(=O)N[C@H]1CSCc2cc(cc(CN3CCN(C(=O)CN4CCN(CC(=O)O)CCN(CC(=O)O)CCN(CC(=O)O)CC4)CC3)c2)CSC[C@@H](C(=O)N[C@@H](CC(=O)O)C(N)=O)NC(=O)[C@H](Cc2ccccc2)NC(=O)[C@H](CCC(N)=O)NC(=O)[C@H]([C@@H](C)O)NC(=O)[C@@H]2CCCN2C(=O)[C@@H]2CCCN2C1=O [Compound 3BP-3407, Hex-[Cys(tMeBn(DOTA-PP))-Pro-Pro-Thr-Gln-Phe-Cys]-Asp-NH2] (Hexanoyl-CPPTQFCD-NH2; linker 1-7 via X1) | −9% | 9% | −5% | 0% | 2% | -8% | -5% | 1% | -1% | 2% | -4% | -1% | 14% | -1% | 0% | 98% | 99% | 3% | 3% | -1% | inhibition at 10 µM (Renin): 3% |
